Patent publication US10654867B2 (Genentech, Inc., priority 2016, dated 2020)

Target: T1, estrogen receptor alpha (ESR1) in MCF7 breast cancer cells (Homo sapiens, UniProt P03372)
T1 sequence (P03372 1-595): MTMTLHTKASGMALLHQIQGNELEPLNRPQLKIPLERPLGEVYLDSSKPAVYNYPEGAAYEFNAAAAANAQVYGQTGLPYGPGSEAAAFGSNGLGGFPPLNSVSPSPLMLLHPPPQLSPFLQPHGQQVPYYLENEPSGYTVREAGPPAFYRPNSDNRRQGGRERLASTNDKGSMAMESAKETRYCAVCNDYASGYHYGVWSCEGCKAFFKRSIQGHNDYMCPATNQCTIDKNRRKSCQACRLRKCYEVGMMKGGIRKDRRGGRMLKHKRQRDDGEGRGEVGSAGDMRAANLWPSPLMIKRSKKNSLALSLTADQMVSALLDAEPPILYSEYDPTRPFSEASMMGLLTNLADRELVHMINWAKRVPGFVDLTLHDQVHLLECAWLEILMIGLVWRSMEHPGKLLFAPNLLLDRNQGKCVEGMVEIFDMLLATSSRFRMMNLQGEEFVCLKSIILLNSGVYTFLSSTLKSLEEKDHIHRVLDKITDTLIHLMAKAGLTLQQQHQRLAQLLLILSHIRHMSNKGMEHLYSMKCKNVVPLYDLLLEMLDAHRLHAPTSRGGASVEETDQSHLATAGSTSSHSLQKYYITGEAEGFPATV
Assay: Breast Cancer Cell ERa High Content Fluorescence Imaging Degradation Assay (ER-alpha MCF7 HCS)
Type: cell-based
Set-up: endogenous in cells; host or cells: MCF7 breast cancer cells; key to ERalpha (WT) MCF7HCS (Sinf): % change in ERα level; DMSO = 0%, fulvestrant = 100% change
Details: 4 hours, plateau of the maximal effect; for ER-alpha MCF7HCS Sinf: DMSO and fulvestrant define 0% and 100% change in ESR1, Table 1a; for ERalpha (WT) MCF7HCS (Sinf): DMSO and fulvestrant define 0% and 100% change in ESR1, Table 1b
Method: All of the exemplary Formula I, II, and III compounds in Tables 1a and 1b were made and characterized by LCMS [M+H]^+ (liquid chromatography mass spectroscopy) with detection of parent ion. All of the exemplary Formula I, II, and III compounds in Tables 1a and 1b were tested for binding to ERa (Estrogen Receptor alpha) and biological activity according to the assays, protocols, and procedures of Examples 901-907. ER-alpha MCF7 HCS Sinf (%) values in Tables 1a and 1b were measured by the Breast Cancer Cell ERa High Content Fluorescence Imaging Degradation Assay of Example 901. ER-alpha MCF7 HCS EC50 (μM) values in Tables 1a and 1b were measured by the in vitro cell proliferation assays described in Examples 902 and 903. The rat uterine wet weight assays of Examples 906 and 907 allow rapid determination of compound antagonist activity in an ER responsive tissue (immature rat uterus) while competing against the native ER ligand estradiol, i.e. antagonist mode (Ashby, J.; et al (1997) Regulatory toxicology and pharmacology: RTP, 25 (3):226-31). Exemplary Formula I, II, and III compounds in Tables 1a and 1b have the following structures, corresponding names (ChemBioDraw, Version 12.0.2, CambridgeSoft Corp., Cambridge Mass.), and biological activity. Where more than one name is associated with a Formula I, II, and III compound or intermediate, the chemical structure shall define the compound.
MCF7 breast cancer cells were seeded on day 1 at a density of 10,000 cells per well in 384 well poly-lysine coated tissue culture plate (Greiner # T-3101-4), in 50 μL/well RPMI (phenol red free), 10% FBS (Charcoal stripped), containing L-glutamine. On day 2, compounds were prepared at 2 compound source concentrations: 100 μM and 1 μM (ultimately to give 2 overlapping titration curves), in a Labcyte low dead volume plate, 10 μL/well, and 10 μL of DMSO in designated wells for backfill, and 5 μM Fulvestrant (control compound) in designated wells. Compounds and controls were dispensed using a Labcyte Echo acoustic dispenser to dispense compounds with a predefined serial dilution (1.8×, 10 point, in duplicate) and appropriate backfill and control compounds (final total volume transferred was 417.5 nL and compound dispense volume ranges from 2.5 nL to 417.5 nL; 0.84% DMSO (v/v) final), ultimately producing a concentration range from 0.05 nM to 835 nM. Cell plates were incubated at 37° C., for 4 hours. Fixation and permeabilization were carried out using a Biotek EL406 plate washer and dispenser as follows. Cells were fixed by addition of 15 μL of 16% paraformaldehyde (Electron Microscopy Sciences #15710-S) directly to the 50 μL cell culture medium in each well using the peristaltic pump 5 μL cassette on a Biotek EL406 (final concentration of formaldehyde was 3.7% w/v). Samples were incubated 30 minutes. Well contents was aspirated and 50 μL/well of Phosphate Buffered Saline (PBS) containing 0.5% w/v bovine serum albumen, 0.5% v/v Triton X-100 (Antibody Dilution Buffer) was added to each well. Samples were incubated for 30 minutes. Well contents were aspirated and washed 3 times with 100 μL/well of PBS. Immunofluorescence staining of estrogen receptor alpha (ESR1) was carried out using a Biotek EL406 plate washer and dispenser as follows. The well supernatant was aspirated from the wells and 25 μL/well of anti-ESR1 mAb (F10) (Santa Cruz sc-8002) diluted 1:1000 in Antibody Dilution Buffer was dispensed. Samples were incubated for 2 hours at room temperature. Samples were washed 4 times with 100 μL/well of PBS. 25 uL (microliters)/well of secondary antibody solution (Alexafluor 488 conjugate anti-mouse IgG (LifeTechnologies # A21202) diluted 1:1000 and Hoechst 33342 1 μg/ml diluted in Antibody Dilution Buffer) were dispensed into each well. Samples were incubated for 2 hours at room temperature. Samples were washed 3 times with 100 μL/well of PBS using a Biotek EL406. Quantitative fluorescence imaging of ESR1 was carried out using a Cellomics Arrayscan V (Thermo). […]

| ER-alpha MCF7HCS Sinf [%] | ERalpha (WT) MCF7HCS (Sinf) | SMILES |
| --- | --- | --- |
| −95.7 |  | C[C@@H]1Cc2[nH]c3ccccc3c2[C@@H](c2c(F)cc(OCCN3CC(CF)C3)cc2F)N1CC(F)(F)CO (single isomer, unassigned) [Example 147] |
| −96.9 |  | C[C@@H]1CCN(CC(C)(C)F)[C@H](c2c(F)cc(OCCN3CC(CF)C3)cc2F)c2[nH]c3ccccc3c21 [Example 123, (1R,5R)-1-(2,6-difluoro-4-(2-(3-(fluoromethyl)azetidin-1-yl)ethoxy)phenyl)-2-(2-fluoro-2-methylpropyl)-5-methyl-1,2,3,4,5,10-hexahydroazepino[3,4-b]indole] |
| −96.7 |  | CC(C)(F)CN1CCCc2c([nH]c3ccccc23)[C@H]1c1c(F)cc(OCCN2CC(CF)C2)cc1F [Example 103, (R)-1-(2,6-difluoro-4-(2-(3-(fluoromethyl)azetidin-1-yl)ethoxy)phenyl)-2-(2-fluoro-2-methylpropyl)-1,2,3,4,5,10-hexahydroazepino[3,4-b]indole] |
| −93.8 |  | C[C@@](F)(CO)CN1CCCc2c([nH]c3ccccc23)[C@H]1c1c(F)cc(OCCN2CC(CF)C2)cc1F [Example 117, (S)-3-((R)-1-(2,6-difluoro-4-(2-(3-(fluoromethyl)azetidin-1-yl)ethoxy)phenyl)-3,4,5,10-tetrahydroazepino[3,4-b]indol-2(1H)-yl)-2-fluoro-2-methylpropan-1-ol] |
|  | −96 | C[C@@H]1Cc2oc3ccccc3c2[C@@H](c2c(F)cc(OCCN3CC(CF)C3)cc2F)N1CC(C)(C)F (stereo in doubt) [Example 167, 1-(2,6-difluoro-4-(2-(3-(fluoromethyl)azetidin-1-yl)ethoxy)phenyl)-2-(2-fluoro-2-methylpropyl)-3-methyl-1,2,3,4-tetrahydrobenzofuro [3,2-c]pyridine] |
| −97.8 |  | C[C@H]1CN(CC(C)(C)F)[C@H](c2c(F)cc(OCCN3CC(CF)C3)cc2F)c2[nH]c3ccccc3c21 (single isomer, unassigned) [Example 107] |

Further lines, the molecule ahead of its results:

| SMILES | ER-alpha MCF7HCS Sinf [%] | ERalpha (WT) MCF7HCS (Sinf) |
| --- | --- | --- |
| C[C@@H]1Cc2c([nH]c3ccccc23)[C@@](C)(c2ccc(OCCN3CC(CF)C3)cc2)N1CC(C)(C)F [Example 135, (1R,3R)-2-(2-Fluoro-2-methylpropyl)-1-(4-(2-(3-(fluoromethyl)azetidin-1-yl)ethoxy)phenyl)-1,3-dimethyl-2,3,4,9-tetrahydro-1H-pyrido[3,4-b]indole] | −95 |  |
| C[C@@H]1Cc2c([nH]c3ccccc23)[C@]2(CCc3cc(OCCN4CC(CF)C4)ccc32)N1CC(F)(F)F [Example 114, (1R,3′R)-5-(2-(3-(fluoromethyl)azetidin-1-yl)ethoxy)-3′-methyl-2′-(2,2,2-trifluoroethyl)-2,2′,3,3′,4′,9′-hexahydrospiro [indene-1,1′-pyrido [3,4-b]indole]] | −96.6 |  |
| C[C@@H]1Cn2c(cc3ccccc32)[C@@H](c2c(F)cc(NC3CN(CCCF)C3)cc2F)N1CC(C)(C)F [Example 127, N-(3,5-Difluoro-4-((1R,3R)-2-(2-fluoro-2-methylpropyl)-3-methyl-1,2,3,4-tetrahydropyrazino[1,2-a]indol-1-yl)phenyl)-1-(3-fluoropropyl)azetidin-3-amine] | −100 |  |
| C[C@@H]1Cc2c([nH]c3ncccc23)[C@@H](c2c(F)cc(OC3CN(CCCF)C3)cc2F)N1CC(C)(C)F (single isomer, unassigned) [Example 120] | −88.0 |  |
| C[C@@H]1Cc2sc3ccccc3c2[C@@H](c2c(F)cc(NC3CN(CCCF)C3)cc2F)N1CC(F)(F)CO [Example 166, 3-((1R,3R)-1-(2,6-difluoro-4-((1-(3-fluoropropyl)azetidin-3-yl)amino)phenyl)-3-methyl-3,4-dihydrobenzo[4,5]thieno[3,2-c]pyridin-2(1H)-yl)-2,2-difluoropropan-1-ol] |  | −101 |
| C[C@@H]1Cc2c([nH]c3ccccc23)[C@@]2(CCc3cc(OCCN4CC(CF)C4)ccc32)N1CC(F)(F)F [Example 115, (1S,3′R)-5-(2-(3-(fluoromethyl)azetidin-1-yl)ethoxy)-3′-methyl-2′-(2,2,2-trifluoroethyl)-2,2′,3,3′,4′,9′-hexahydrospiro [indene-1,1′-pyrido [3,4-b]indole]] | −98 |  |
| C[C@@H]1Cn2c(cc3ccccc32)[C@@H](c2c(F)cc(OC3CN(CCCF)C3)cc2F)N1CC(F)(F)F [Example 141, (1R,3R)-1-(2,6-difluoro-4-((1-(3-fluoropropyl)azetidin-3-yl)oxy)phenyl)-3-methyl-2-(2,2,2-trifluoroethyl)-1,2,3,4-tetrahydropyrazino[1,2-a]indole] | −103 |  |
| C[C@@H]1Cc2[nH]c3ccccc3c2[C@@H](c2c(F)cc(NC3CN(CCCF)C3)cc2F)N1CC(F)(F)F [Example 152, N-(3,5-difluoro-4-((1S,3R)-3-methyl-2-(2,2,2-trifluoroethyl)-2,3,4,5-tetrahydro-1H-pyrido[4,3-b]indol-1-yl)-phenyl)-1-(3-fluoropropyl) azetidin-3-amine] | −99 |  |
| CC(C)C(=O)N1[C@H](c2c(F)cc(OCCN3CC(CF)C3)cc2F)c2oc3ccccc3c2C[C@H]1C (single isomer, unassigned) [Example 101] | −94.5 |  |
| CC1Cc2[nH]c3ccccc3c2C(c2c(F)cc(NC3CN(CCCF)C3)cc2F)N1CCF (stereo not drawn) [Example 149, (□)-N-(3,5-difluoro-4-(2-(2-fluoroethyl)-3-methyl-2,3,4,5-tetrahydro-1H-pyrido[4,3-b]indol-1-yl)phenyl)-1-(3-fluoropropyl) azetidin-3-amine] | −75 |  |
| C[C@H]1Cc2sc3ccccc3c2[C@H](c2c(F)cc(NC3CN(CCCF)C3)cc2F)N1CC(F)(F)CO [Example 165, 3-((1S,3S)-1-(2,6-difluoro-4-((1-(3-fluoropropyl)azetidin-3-yl)amino)phenyl)-3-methyl-3,4-dihydrobenzo[4,5]thieno[3,2-c]pyridin-2(1H)-yl)-2,2-difluoropropan-1-ol] |  | −92.3 |
| C[C@H]1Cc2c(sc3ccccc23)[C@H](c2c(F)cc(NC3CN(CCCF)C3)cc2F)N1CC(F)(F)CO (single isomer, unassigned) [Example 160] | −96.9 |  |
